Assay results published in patent publication US20120277257A1, “Methods of Treating Diseases, Pharmaceutical Compositions, and Pharmaceutical Dosage Forms” (MYREXIS, INC., priority 2009, published 2012).
Like-named read-outs stand apart in the source and are kept apart here.

Experiment: Phase I clinical trial, human plasma pharmacokinetics of oral Compound 1
Format: in vivo
Settings: human, plasma, po; for Vd/F: read-out: Vz/F
Protocol: A human clinical study was initiated at a starting dose of 50 mg/m^2. Subjects had recurrent cancer refractory to available systemic therapy. Compound 1 was administered daily by mouth in tablet form for 21 consecutive days in a 28 day cycle to each enrolled subject. […] Plasma was collected pre-dose only for cycle 1 day 8. […] Patients were men and women with metastatic cancer, ranged in age from 45 to 85 years, and received doses ranging from 50 mg/m^2 to 340 mg/m^2, with a total daily dose of 100-740 mg (Tables 2A and 2B).

[1] = 50 mg/m^2, Day 19, Cohort 1, Subject 101, 50 mg/m^2 (100 mg), oral daily
[2] = 100 mg/m^2, Day 01, Cohort 2, Subject 201, 100 mg/m^2 (160 mg), oral daily
[3] = 100 mg/m^2, Day 21, Cohort 2, 100 mg/m^2 (160 mg), oral daily
[4] = 100 mg/m^2, Day 21, Cohort 2, Subject 201, 100 mg/m^2 (160 mg), oral daily
[5] = 165 mg/m^2, Day 01, Cohort 3, Subject 301, 165 mg/m^2 (300 mg), oral daily
[6] = 165 mg/m^2, Day 21, Cohort 3, 165 mg/m^2 (300 mg), oral daily
[7] = 165 mg/m^2, Day 21, Cohort 3, Subject 301, 165 mg/m^2 (300 mg), oral daily
[8] = 245 mg/m^2, Day 01, Cohort 4, N = 6, 245 mg/m^2 (340-540 mg), oral daily
[9] = 340 mg/m^2, Day 01, Cohort 5, 340 mg/m^2 (480-620 mg), oral daily
[10] = 340 mg/m^2, Day 01, Cohort 5, N = 2, 340 mg/m^2 (480-620 mg), oral daily
[11] = 340 mg/m^2, Day 21, Cohort 5 (BID), Subject 508, 340 mg/m^2 (330 mg), oral twice daily
[12] = 340 mg/m^2, Day 21, Cohort 5, 340 mg/m^2 (620 mg), oral daily
[13] = 340 mg/m^2, Day 21, Cohort 5, Subject 503, 340 mg/m^2 (620 mg), oral daily
[14] = Day 21, Cohort 4, 176-245 mg/m^2 (340-540 mg), oral daily

Compound: C[C@H](O)C(=O)N1CCC(CCn2c(Sc3cc4c(cc3Br)OCO4)nc3c(N)ncnc32)CC1 [Compound 1, (2S)-1-[4-(2-{6-amino-8-[(6-bromo-1,3-benzodioxol-5-yl)thio]-9H-purin-9-yl}ethyl)piperidin-1-yl]-1-oxopropan-2-ol]
- Vd/F (50 mg/m^2, Day 19, Cohort 1, 50 mg/m^2 (100 mg), oral daily): 88 L
- Cmax [1]: 1700 ng/mL
- Tmax [1]: 1 h
- half-life [1]: 13.4 h
- Cmax [2]: 2950 ng/mL
- Tmax [2]: 2 h
- half-life [2]: 9.8 h
- AUC(0-inf) [3]: 67.3 µg·h/mL
- AUC(0-t) (100 mg/m^2, Day 21, Cohort 2, 100 mg/m^2 (160 mg), oral daily, read-out: AUC(0-24)): 49.8 µg·h/mL
- Vd/F [3]: 52 L
- Cmax [4]: 3180 ng/mL
- Tmax [4]: 6 h
- half-life [4]: 11.2 h
- Cmax [5]: 6870 ng/mL
- Tmax [5]: 4 h
- half-life [5]: 11.5 h
- AUC(0-inf) [6]: 308 µg·h/mL
- AUC(0-t) (165 mg/m^2, Day 21, Cohort 3, 165 mg/m^2 (300 mg), oral daily, read-out: AUC(0-24)): 200 µg·h/mL
- Vd/F [6]: 30.4 L
- Cmax [7]: 11800 ng/mL
- Tmax [7]: 8 h
- half-life [7]: 14 h
- AUC(0-inf) (240 mg, Day 01, Cohort 6 (BID), 240 mg, oral twice daily, based on a single 12-hour dosing interval): 55 µg·h/mL
- AUC(0-t) (240 mg, Day 01, Cohort 6 (BID), 240 mg, oral twice daily, read-out: AUC(0-12)): 38.2 µg·h/mL
- Vd/F (240 mg, Day 01, Cohort 6 (BID), 240 mg, oral twice daily): 39.6 L
- AUC(0-inf) (240 mg, Day 21, Cohort 6 (BID), 240 mg, oral twice daily, based on a single 12-hour dosing interval): 95.1 µg·h/mL
- AUC(0-t) (240 mg, Day 21, Cohort 6 (BID), 240 mg, oral twice daily, read-out: AUC(0-12)): 67.6 µg·h/mL
- Vd/F (240 mg, Day 21, Cohort 6 (BID), 240 mg, oral twice daily): 34.6 L
- Cmax [8]: 7840 ng/mL
- Tmax [8]: 2.5 h
- half-life [8]: 10.8 h
- AUC(0-inf) (340 mg/m^2, Day 01, Cohort 5 (BID), 340 mg/m^2 (270-370 mg), oral twice daily, based on a single 12-hour dosing interval): 107 µg·h/mL
- AUC(0-t) (340 mg/m^2, Day 01, Cohort 5 (BID), 340 mg/m^2 (270-370 mg), oral twice daily, read-out: AUC(0-12)): 62.1 µg·h/mL
- Vd/F (340 mg/m^2, Day 01, Cohort 5 (BID), 340 mg/m^2 (270-370 mg), oral twice daily): 28.4 L
- AUC(0-inf) [9]: 334 µg·h/mL
- AUC(0-t) (340 mg/m^2, Day 01, Cohort 5, 340 mg/m^2 (480-620 mg), oral daily, read-out: AUC(0-24)): 233 µg·h/mL
- Vd/F [9]: 51.4 L
- Cmax [10]: 16300 ng/mL
- Tmax [10]: 3 h
- half-life [10]: 14.1 h
- AUC(0-inf) (340 mg/m^2, Day 21, Cohort 5 (BID), 340 mg/m^2 (330 mg), oral twice daily, based on a single 12-hour dosing interval): 96.3 µg·h/mL
- AUC(0-t) (340 mg/m^2, Day 21, Cohort 5 (BID), 340 mg/m^2 (330 mg), oral twice daily, read-out: AUC(0-12)): 69.5 µg·h/mL
- Vd/F (340 mg/m^2, Day 21, Cohort 5 (BID), 340 mg/m^2 (330 mg), oral twice daily): 45.7 L
- Cmax [11]: 11000 ng/mL
- Tmax [11]: 1 h
- half-life [11]: 6.7 h
- AUC(0-inf) [12]: 610 µg·h/mL
- AUC(0-t) (340 mg/m^2, Day 21, Cohort 5, 340 mg/m^2 (620 mg), oral daily, read-out: AUC(0-24)): 363 µg·h/mL
- Vd/F [12]: 36.8 L
- Cmax [13]: 25600 ng/mL
- Tmax [13]: 1 h
- half-life [13]: 19.3 h
- AUC(0-inf) [14]: 202 µg·h/mL
- AUC(0-t) (Day 21, Cohort 4, 176-245 mg/m^2 (340-540 mg), oral daily, read-out: AUC(0-24)): 127 µg·h/mL
- Vd/F [14]: 77.9 L
